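All cell lines were grown in 96-well plates and treated with compound for 48 hours. At the TGI there is no net growth.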
Experiments:
Test in all cases: NCI-60 cell line screen, 48 h
LOX IMVI melanoma = tested on: LOX IMVI melanoma
SK-OV-3 ovarian = tested on: SK-OV-3 ovarian
UO-31 renal = tested on: UO-31 renal
U251 CNS = tested on: U251 CNS
SF-268 CNS = tested on: SF-268 CNS
OVCAR-3 ovarian = tested on: OVCAR-3 ovarian
K-562 leukemia = tested on: K-562 leukemia
ACHN renal = tested on: ACHN renal
OVCAR-8 ovarian = tested on: OVCAR-8 ovarian
OVCAR-5 ovarian = tested on: OVCAR-5 ovarian
KM12 colon = tested on: KM12 colon
SF-295 CNS = tested on: SF-295 CNS
SR leukemia = tested on: SR leukemia

SMILES | TGI (LOX IMVI melanoma) | TGI (SK-OV-3 ovarian) | TGI (UO-31 renal) | TGI (U251 CNS) | TGI (SF-268 CNS) | TGI (OVCAR-3 ovarian) | TGI (K-562 leukemia) | TGI (ACHN renal) | TGI (OVCAR-8 ovarian) | TGI (OVCAR-5 ovarian) | TGI (KM12 colon) | TGI (SF-295 CNS) | TGI (SR leukemia)
N#CC(c1cc(Cl)ncn1)c1nc2ccccc2s1 (centres undefined) | 15.8 µM | 28.8 µM | > 100 µM | 18.2 µM | 18.3 µM | 22.8 µM | > 100 µM | 68.7 µM | 12.5 µM | 59.3 µM | > 100 µM | 43.7 µM | 
O=C(c1ccccc1)c1c(CNCc2ccccc2)n(C(=O)c2ccccc2)c2ccccc12 |  |  | 56.1 µM | > 100 µM | > 100 µM | 65.7 µM | > 100 µM | > 100 µM | > 100 µM | > 100 µM | 87.8 µM | 41.7 µM | 80.7 µM
CCn1cnc2c(NC(C)=O)ncnc21 | > 100 µM | > 100 µM | > 100 µM | > 100 µM |  | > 100 µM | > 100 µM | > 100 µM | > 100 µM | > 100 µM | > 100 µM | > 100 µM | 
Cc1n[nH]c(=O)n1N1C(=O)c2ccccc2C1=O | > 100 µM |  | > 100 µM | > 100 µM |  | > 100 µM | > 100 µM | > 100 µM | > 100 µM | > 100 µM | > 100 µM | > 100 µM | > 100 µM
CCc1n[nH]c(=O)n1NC(=O)/C=C\C(=O)O |  | > 100 µM |  | > 100 µM | > 100 µM | > 100 µM | > 100 µM |  | > 100 µM | > 100 µM |  | > 100 µM | > 100 µM
COc1cc(OC)nc(Nc2c(C#N)c3nc4ccccc4n3c3ccccc23)n1 | > 100 µM | > 100 µM | > 100 µM | > 100 µM | > 100 µM | > 100 µM | > 100 µM | 50.1 µM | > 100 µM | > 100 µM | > 100 µM | 53 µM | 
O=c1[nH]c(=O)n(C2CC(O)C(CO)O2)cc1C#Cc1cc(F)cc(F)c1 (centres undefined) | > 100 µM | > 100 µM | > 100 µM | > 100 µM | > 100 µM | > 100 µM | > 100 µM | > 100 µM | > 100 µM | > 100 µM | > 100 µM | > 100 µM | 
CN(C(=O)c1cccs1)C(=S)N1CCN(c2ccccc2)CC1 | > 100 µM |  | > 100 µM | > 100 µM | > 100 µM | > 100 µM | > 100 µM | > 100 µM | > 100 µM | > 100 µM | > 100 µM | > 100 µM | > 100 µM
CC1CCC23COC(=O)C2C(O)CCC3C1(C)CC(O)c1ccoc1 (centres undefined) | > 100 µM | > 100 µM | > 100 µM | > 100 µM | > 100 µM | > 100 µM | > 100 µM | > 100 µM | > 100 µM | > 100 µM | > 100 µM | > 100 µM | 
CC(NC(=O)C(N)CC(=O)O)NC(=O)N1CCCC1 (centres undefined) | > 100 µM | > 100 µM | > 100 µM | > 100 µM | > 100 µM | > 100 µM | > 100 µM | > 100 µM | > 100 µM | > 100 µM | > 100 µM | > 100 µM | 
COc1ccc(-c2nnc(CCCCCCCCc3nnc(-c4ccc(OC)cc4)o3)o2)cc1 | > 100 µM | > 100 µM | > 100 µM | > 100 µM | > 100 µM | > 100 µM | > 100 µM | > 100 µM | > 100 µM | > 100 µM | > 100 µM | > 100 µM | 
CCCCOC(=O)C1CN2C(=NC1(C(F)(F)F)C(F)(F)F)Sc1ccccc12 (centres undefined) | > 100 µM | > 100 µM | > 100 µM | > 100 µM | > 100 µM | > 100 µM | > 100 µM | > 100 µM | > 100 µM | > 100 µM | > 100 µM | > 100 µM | 
Nc1ccc(N)c2c1C(=O)c1c(N)ccc(N)c1C2=O | > 31.6 µM | > 100 µM | > 100 µM | > 100 µM | > 100 µM | 81.9 µM | > 100 µM | > 100 µM | > 100 µM | > 100 µM | > 100 µM | > 100 µM | 
C=C(C(=O)O)[C@@H]1C[C@@H]2O[C@H]1CC(C)=CCC/C(C)=C/CC[C@@]2(C)O | > 100 µM |  | > 100 µM | > 100 µM | > 100 µM | > 100 µM | > 100 µM | > 100 µM | > 100 µM | > 100 µM | > 100 µM | > 100 µM | > 100 µM
COC(=O)c1scc(N)c1-n1ccc(=O)[nH]c1=O | > 100 µM |  | > 100 µM | > 100 µM | > 100 µM |  | > 100 µM | > 100 µM | > 100 µM | > 100 µM | > 100 µM |  | > 100 µM
Cc1cc(-c2ccccc2)cc2[n+]1CC=C2 | > 100 µM |  | > 100 µM | > 100 µM | > 100 µM |  |  | > 100 µM | > 100 µM | > 100 µM | > 100 µM | > 100 µM | 
CCNc1ncnc2n[nH]nc12 | > 100 µM | > 100 µM | > 100 µM | > 100 µM |  | > 100 µM | > 100 µM | > 100 µM | > 100 µM |  | > 100 µM | > 100 µM | 
Cc1c2cccc-2c(OCCO)cc2c1[nH]c1ccccc12 | 4.97 µM | 14.4 µM | 3.09 µM | 3.78 µM |  | 3.75 µM | > 24.3 µM | 2.72 µM | 15.7 µM | 5.83 µM | 7.04 µM | 14.7 µM | 
CC1(C)C2CCC1(CC(=O)O)C(Cl)C2 (centres undefined) | > 100 µM | > 100 µM | > 100 µM | > 100 µM | > 100 µM | > 100 µM | > 100 µM | > 100 µM | > 100 µM | > 100 µM | > 100 µM | > 100 µM | 

Reference: PubChem BioAssay (NCI)
